The values below are quoted from earlier work in US5013557A, “Taste masking compositions comprising spray dried microcapsules containing sucralfate and methods for preparing same” (Warner-Lambert Company, priority 1989, dated 1991).

The conditions of data set [1]: pH values below about 3.5.
For data set [2] the following is noted: sulfated disaccharide.
For the next data set, the system named is peptic ulcers. Particulars: in vivo.
The next data set has as its system pepsin. The settings on record: gel-like mass at ulcer site.
For another data set, the system named is EGF. Particulars: in vivo.

For the substance “alpha-D-glucopyranoside, beta-D-fructofuranosyl-, octakis-(hydrogen sulfate), aluminum complex [sucralfate]”, the “Coagulation / gel formation” value in data set [1] was “coagulates to form a gel-like mass”. The “Absorption from the gastrointestinal tract” value in data set [2] is “not absorbed from the gastrointestinal tract”. Besides, the “Affinity for ulcerated mucosa versus non-ulcerated mucosa” value with ulcerated mucosa is “greater affinity for ulcerated mucosa than for non-ulcerated mucosa”. Moreover, the “Morphological and functional changes in the mucosa” value in the data set on mucosa is “mucus release, changes in ion transport and increased release and synthesis of prostaglandins”. The “Healing of peptic ulcers” value with peptic ulcers is listed as “accelerates the healing of peptic ulcers”. Moreover, in the data set with pepsin, the “Effect of protein barrier on bile salts and pepsin” value is “adsorbs bile salts and inhibits the potential ulcerogenic properties of pepsin”. Also, the “Effect of barrier on back diffusion of gastric acid” value (across the sucralfate protein barrier) is “blocks back diffusion of gastric acid”. Also, the “Effect of barrier on diffusion of hydrogen ions” value (protein barrier bound to ulcer site) is reported as “blocks diffusion of hydrogen ions”. In the data set with EGF, the “EGF remaining in the stomach” value was “enable EGF to remain in the stomach at a high concentration”.
